Laboratory results as given in patent US7807841B2, “Spiro-containing compounds and compositions as modulators of steroid hormone nuclear receptors” (IRM LLC, priority 2005, dated 2010).

Biological target: T1, Mineralocorticoid Receptor (MR) (Homo sapiens, UniProt P08235)
T1 construct: expressed in transfected cells; host or cells: 293T cells (ATCC)
T1 sequence (P08235 672-984): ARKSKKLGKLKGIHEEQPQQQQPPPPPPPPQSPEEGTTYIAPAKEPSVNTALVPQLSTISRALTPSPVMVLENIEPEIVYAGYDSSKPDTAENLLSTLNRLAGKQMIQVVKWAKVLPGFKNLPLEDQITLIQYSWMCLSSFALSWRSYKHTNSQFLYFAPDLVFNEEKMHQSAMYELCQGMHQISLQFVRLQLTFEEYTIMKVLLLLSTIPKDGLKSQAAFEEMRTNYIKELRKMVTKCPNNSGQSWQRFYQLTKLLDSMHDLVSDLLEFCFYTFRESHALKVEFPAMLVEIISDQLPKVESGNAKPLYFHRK
Assay: Functional assay of mineralocorticoid receptor antagonism (Gal4-MR mammalian two hybrid luciferase reporter, 293T cells)
Assay type: cell-based
Conditions: antagonism of aldosterone (0.4 nM)-induced MR activity
Experimental: The MR antagonist activity of the compounds is determined in a mammalian two hybrid reporter system. The N-terminus of MR (MR-NT, sequence coding amino acid 1-597) is fused to the activation domain of the VP16 gene. The ligand binding domain of MR (MR-LBD, sequence encoding amino acid 672-984) is fused to the DNA binding domain of the yeast Gal4 gene. The MR gene is cloned from a human kidney cDNA library with PCR.
The assay is performed in 384 well plates. Briefly, 293T cells (ATCC) are transfected with expression vectors for Gal-4-MR-LBD and VP16-MR NT, and a luciferase reporter vector containing Gal4 binding sequence (pG5-Luc). Cells are plated in 384 well plates immediately after transfection (approximately 3×10^4 cells/well in 50 μl medium). The medium is supplemented with 3% charcoal-dextran treated fetal bovine serum (Hyclone). Twenty four hours after transfection, compounds prepared in DMSO are transferred to the cells. The cells are then stimulated with 0.4 nM final concentration of aldosterone (Acros) and incubated at 37° C. for another 24 hours before the luciferase activity is assayed with 20 μl of Bright-Glo (Promega) using a luminometer (CLIPR). The expression of luciferase is used as an indicator of aldosterone-induced MR trans-activation. Each compound is tested in duplicates with 12-concentration titration. IC50 values (defined as the concentration of test compound required to antagonize 50% of aldosterone-induced MR activity) are determined from the dose-response curve.

Structure (SMILES) | IC50 [nM]
COc1ccc(C2=NCC3(O2)c2ccccc2C=Cc2ccccc23)cc1 [OXS-3] | 100 to 1000
O=C1CCC2(c3ccn(S(=O)(=O)c4ccccc4)c3)OC3(CN12)c1ccccc1C=Cc1ccccc13 (centres unmarked) [FRS-12] | 100 to 1000
O=C1CCC2(c3ccc(Br)cc3)OC3(CN12)c1ccccc1C=Cc1ccccc13 (centres unmarked) [FRS-7] | < 100
CC1(C)OC2(CN1C(=O)c1ccccc1)c1ccccc1C=Cc1ccccc12 [SOXS-5] | 100 to 1000
C1=Cc2ccccc2C2(CN=C(c3ccccc3)O2)c2ccccc21 [OXS-2] | 100 to 1000
